Here are results for one molecule from patent US20230107186A1, “COBICISTAT FOR PREVENTION AND/OR TREATMENT OF CORONAVIRUS INFECTIONS” (priority 2020, published 2023).

The test system of the assay is S-protein. Format: cell-based, SARS-CoV-2.

As to `CC(C)c1nc(CN(C)C(=O)N[C@@H](CCN2CCOCC2)C(=O)N[C@H](CC[C@H](Cc2ccccc2)NC(=O)OCc2cncs2)Cc2ccccc2)cs1` [Cobicistat, 1,3-thiazol-5-ylmethyl [(2R,5R)-5-{[(2S)-2-({[(2-isopropyl-1,3-thiazol-4-yl)methyl](methyl)carbamoyl}amino)-4-(morpholin-4-yl)butanoyl]amino}-1,6-diphenylhexan-2-yl]carbamate], the S-protein levels entry is “decreased” and the “concentration range with effect in western blot analysis” value is 5 to 10 µM.
